Assay results reported in patent publication US20150272881A1, “REDUCED PYRROLOQUINOLINE QUINONE GEL” (MITSUBISHI GAS CHEMICAL COMPANY, INC., priority 2011, published 2015).

Type: physicochemical
Source text: The “solubility” in this description means the limit of dissolving of a solute in a solvent; it can be expressed as the concentration of a solute in a saturated solution. The solubility of the oxidized pyrroloquinoline quinone derivative or a salt thereof can be appropriately decided depending on the temperature of the mixture.

In the case of `O=C([O-])c1cc(C(=O)[O-])c2c(n1)C(=O)C(=O)c1cc(C(=O)O)[nH]c1-2.[Na+].[Na+]` [oxidized pyrroloquinoline quinone disodium], the solubility is reported as 0.299 g with respect to 100 g of water.
